# In DBAASP:
# Tests used:
# Assay in all cases: ≥ marks a high value that may be exact or a test limit, other limits are often not marked, values filed in µg/mL are converted to µM
# Escherichia coli BW25113 = tested on: Escherichia coli BW25113
# [1] = tested on: Escherichia coli BW25113 ΔsbmA
# [2] = tested on: Staphylococcus aureus ATCC 33591
# [3] = tested on: Enterococcus faecium ATCC BAA-2316
# [4] = tested on: Staphylococcus aureus ATCC 29213
# [5] = tested on: Pseudomonas aeruginosa ATCC BAA-2114
# [6] = tested on: Escherichia coli ATCC 35218
# [7] = tested on: Staphylococcus aureus ATCC BAA-41
# [8] = tested on: Staphylococcus epidermidis ATCC 12228
# [9] = tested on: Staphylococcus aureus ATCC 43300
# [10] = tested on: Escherichia coli ATCC 25922
# [11] = tested on: Streptococcus mutans AU159
# [12] = tested on: Streptococcus pneumoniae ATCC 11733
# [13] = tested on: Bacillus cereus ATCC 11778
# [14] = tested on: Micrococcus luteus ATCC 4698
# [15] = tested on: Enterococcus faecium CCT 5079
# [16] = tested on: Salmonella enterica subsp. enterica serovar Typhimurium ATCC 14028
# [17] = tested on: Staphylococcus aureus CCT 6538
# [18] = tested on: Staphylococcus aureus ATCC 25923
# [19] = tested on: Escherichia coli CCT 1457
# [20] = tested on: Escherichia coli ATCC 11775
# [21] = tested on: Enterococcus hirae ATCC 10541
# [22] = tested on: Salmonella enterica subsp. enterica serovar Choleraesuis ATCC 10708
# [23] = tested on: Bacillus thuringiensis ATCC 10792
# [24] = tested on: Staphylococcus aureus CCT 2580
# [25] = tested on: Pseudomonas aeruginosa ATCC 13388
# [26] = tested on: Pseudomonas aeruginosa ATCC 15422
# Escherichia coli C25 = tested on: Escherichia coli C25
# [27] = tested on: Salmonella enterica subsp. enterica serovar Enteritidis MH91989
# [28] = tested on: Escherichia coli JW0368 ΔsbmA
# [29] = tested on: Salmonella typhimurium SL1344
# Escherichia coli MC1041 = tested on: Escherichia coli MC1041
# Escherichia coli JJ2489 = tested on: Escherichia coli JJ2489
# Escherichia coli JW0013 = tested on: Escherichia coli JW0013
# [30] = tested on: Escherichia coli JW2778 ΔygdD
# Escherichia coli J2210 = tested on: Escherichia coli J2210
# [31] = tested on: Klebsiella pneumoniae ATCC 13883
# [32] = tested on: Klebsiella pneumoniae E406-17
# [33] = tested on: Pseudomonas aeruginosa PAO1
# [34] = tested on: Pseudomonas aeruginosa E411-17
# Escherichia coli E416-7 = tested on: Escherichia coli E416-7
# [35] = tested on: Staphylococcus aureus M838-17
# [36] = tested on: Enterococcus faecium V286-17
# [37] = tested on: Staphylococcus aureus JE2
compound,measurement,setting,value
CC[C@H](C)[C@H](NC(=O)[C@@H]1CCCN1C(=O)[C@@H]1CCCN1C(=O)[C@H](CCCN=C(N)N)NC(=O)[C@H](Cc1ccccc1)NC(=O)[C@@H](N)CCCN=C(N)N)C(=O)N[C@@H](CCCN=C(N)N)C(=O)N[C@@H](CCCN=C(N)N)C(=O)N1CCC[C@H]1C(=O)N1CCC[C@H]1C(=O)N[C@H](C(=O)N[C@@H](CCCN=C(N)N)C(=O)N1CCC[C@H]1C(=O)N1CCC[C@H]1C(=O)N[C@@H](Cc1ccccc1)C(=O)N[C@@H](CCCN=C(N)N)C(=O)N1CCC[C@H]1C(=O)N1CCC[C@H]1C(=O)N[C@@H](Cc1ccccc1)C(=O)N[C@@H](CCCN=C(N)N)C(=O)N1CCC[C@H]1C(=O)N1CCC[C@H]1C(=O)N[C@H](C(=O)N[C@@H](CCCN=C(N)N)C(=O)N1CCC[C@H]1C(=O)O)C(C)C)[C@@H](C)CC [RFRPPIRRPPIRPPFRPPFRPPVRP],MIC,Escherichia coli BW25113,1 µM
same,MIC,[1],8 µM
CC[C@H](C)[C@H](NC(=O)[C@H](CCCN=C(N)N)NC(=O)[C@H](CCC(N)=O)NC(=O)[C@@H](NC(=O)[C@@H](NC(=O)[C@H](CCCN=C(N)N)NC(=O)[C@H](CCCCN)NC(=O)[C@H](Cc1ccccc1)NC(=O)[C@@H](NC(=O)[C@@H]1CCCN1C(=O)[C@H](CO)NC(=O)[C@H](CC(C)C)NC(=O)[C@H](CCCCN)NC(=O)[C@H](CCCCN)NC(=O)[C@H](Cc1ccccc1)NC(=O)[C@H](CC(C)C)NC(=O)[C@H](CCCCN)NC(=O)[C@H](CCCCN)NC(=O)[C@H](Cc1ccccc1)NC(=O)[C@@H](N)CCCCN)C(C)C)[C@@H](C)CC)C(C)C)C(=O)N[C@@H](CCCCN)C(=O)N[C@@H](CC(=O)O)C(=O)N[C@@H](Cc1ccccc1)C(=O)N[C@@H](CC(C)C)C(=O)N[C@@H](CCCN=C(N)N)C(=O)O [KFKKLFKKLSPVFKRIVQRIKDFLR],MIC,[2],20 µM
same,MIC,[3],20 µM
same,MIC,[4],20 µM
same,MIC,[5],10 µM
same,MIC,[6],20 µM
same,MIC,[7],20 µM
same,MIC,[8],20 µM
same,MIC,[9],20 µM
same,MIC,[10],20 µM
CC[C@H](C)[C@H](N)C(=O)N[C@@H](CC(N)=O)C(=O)N[C@@H](Cc1c[nH]c2ccccc12)C(=O)N[C@@H](CC(C)C)C(=O)N[C@@H](C)C(=O)N[C@H](C(=O)N[C@@H](C)C(=O)N[C@@H](C)C(=O)N[C@@H](CCCCN)C(=O)N[C@H](C(=O)N[C@@H](C)C(=O)NCC(=O)N[C@@H](CCSC)C(=O)N[C@@H](CC(C)C)C(N)=O)C(C)C)[C@@H](C)CC [INWLAIAAKVAGML],MIC,[11],≥ 170 µM
same,MIC,[12],0.68 µM
same,MIC,[13],≥ 85 µM
same,MIC,[14],10.6 µM
same,MIC,[15],≥ 170 µM
same,MIC,[16],340 µM
same,MIC,[17],10.9 µM
same,MIC,[18],10.9 µM
same,MIC,[19],≥ 170 µM
same,MIC,[20],≥ 340 µM
same,MIC,[21],≥ 170 µM
same,MIC,[8],10.9 µM
same,MIC,[22],≥ 340 µM
same,MIC,[23],≥ 85 µM
same,MIC,[24],2.72 µM
same,MIC,[10],170 µM
same,MIC,[25],≥ 340 µM
same,MIC,[26],≥ 340 µM
CC[C@H](C)[C@H](NC(=O)CNC(=O)[C@H](CCCN=C(N)N)NC(=O)[C@H](Cc1ccc(O)cc1)NC(=O)[C@@H](NC(=O)[C@H](CCCN=C(N)N)NC(=O)[C@H](Cc1ccccc1)NC(=O)[C@H](Cc1c[nH]c2ccccc12)NC(=O)[C@@H](N)CCCCN)C(C)C)C(=O)N[C@@H](Cc1ccc(O)cc1)C(=O)N[C@@H](CCCN=C(N)N)C(N)=O [KWFRVYRGIYR],MIC,[18],17 µM
same,MIC,Escherichia coli C25,8.5 µM
CC[C@H](C)[C@H](NC(=O)[C@H](CCCN=C(N)N)NC(=O)[C@@H](N)CCCN=C(N)N)C(=O)N[C@@H](CCCCN)C(=O)N[C@@H](CCCCN)C(=O)N[C@@H](CCCN=C(N)N)C(=O)N1CCC[C@H]1C(=O)N1CCC[C@H]1C(=O)N[C@@H](CCCN=C(N)N)C(=O)N[C@@H](CC(C)C)C(=O)N1CCC[C@H]1C(=O)N[C@@H](CCCN=C(N)N)C(=O)N1CCC[C@H]1C(=O)N[C@@H](CCCN=C(N)N)C(=O)N1CCC[C@H]1C(=O)N[C@@H](CCCCN)C(=O)O [RRIKKRPPRLPRPRPK],MIC,Escherichia coli BW25113,0.078 µM
same,MIC,[27],0.167 µM
same,MIC,[28],0.06 µM
same,MIC,[29],0.12 µM
same,MIC,Escherichia coli MC1041,0.06 µM
same,MIC,Escherichia coli JJ2489,0.12 µM
same,MIC,Escherichia coli JW0013,0.06 µM
same,MIC,[30],0.12 µM
same,MIC,Escherichia coli J2210,0.167 µM
CC(C)C[C@H](NC(=O)[C@H](CC(C)C)NC(=O)[C@H](CCCCN)NC(=O)[C@H](CC(C)C)NC(=O)CNC(=O)[C@H](CC(C)C)NC(=O)[C@H](CO)NC(=O)[C@H](CC(C)C)NC(=O)[C@H](CC(C)C)NC(=O)[C@H](CC(C)C)NC(=O)[C@H](CO)NC(=O)[C@H](CC(C)C)NC(=O)CN)C(N)=O [GLSLLLSLGLKLL],MIC,[31],25 µM
same,MIC,[32],≥ 50 µM
same,MIC,[33],> 25 µM
same,MIC,[34],≥ 50 µM
same,MIC,Escherichia coli E416-7,≥ 50 µM
same,MIC,[35],3.1 µM
same,MIC,[36],4.4 µM
same,MIC,[10],> 25 µM
same,MIC,[37],1.56 µM
